Patent publication US10597388B2, “Pyridazinone herbicides” (FMC CORPORATION, priority 2014, dated 2020)

How the values were obtained:
Test in all cases: Test C greenhouse herbicide test, pre- and postemergence
Format in all cases: in vivo
[1] = test system: waterhemp (common waterhemp, Amaranthus rudis)
Summary of the method: (§1)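 Two application timings: at sowing into a soil/sand blend, and on 2–18 cm seedlings in peat-vermiculite potting mix. A non-phytotoxic, surfactant-containing solvent carried the compounds. Plants were compared with controls and rated visually on 0–100 after 13–15 d.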

[2] = test system: foxtail, giant (giant foxtail, Setaria faberii)
Summary of the method: as §1

[3] = test system: barnyardgrass (Echinochloa crus-galli)
Summary of the method: as §1

[4] = test system: nutsedge, yellow (yellow nutsedge, Cyperus esculentus)
Summary of the method: as §1

[5] = test system: blackgrass (Alopecurus myosuroides)
Summary of the method: as §1

soybean (Glycine max) = test system: soybean (Glycine max)
Summary of the method: as §1

[6] = test system: morningglory (Ipomoea coccinea)
Summary of the method: as §1

[7] = test system: lambsquarters (Chenopodium album)
Summary of the method: as §1

[8] = test system: galium (catchweed bedstraw, Galium aparine)
Summary of the method: as §1

[9] = test system: ragweed (common ragweed, Ambrosia elatior)
Summary of the method: as §1

[10] = test system: pigweed (Amaranthus retroflexus)
Summary of the method: as §1

[11] = test system: johnsongrass (Sorghum halepense)
Summary of the method: as §1

[12] = test system: velvetleaf (Abutilon theophrasti)
Summary of the method: as §1

[13] = test system: ryegrass, Italian (Italian ryegrass, Lolium multiflorum)
Summary of the method: as §1

corn (Zea mays) = test system: corn (Zea mays)
Summary of the method: as §1

[14] = test system: wheat (winter wheat, Triticum aestivum)
Summary of the method: as §1

[15] = Postemergence, 125 g ai/ha, scale 0 to 100, 0 is no effect, 100 is complete control
[16] = Postemergence, 250 g ai/ha, scale 0 to 100, 0 no effect, 100 complete control, 13 to 15 d
[17] = Preemergence, 31 g ai/ha, scale 0 to 100, 0 is no effect, 100 is complete control
[18] = Preemergence, 62 g ai/ha, scale 0 to 100, 0 is no effect, 100 is complete control
[19] = Preemergence, 125 g ai/ha, scale 0 to 100, 0 is no effect, 100 is complete control
[20] = Preemergence, 250 g ai/ha, scale 0 to 100 (0 no effect, 100 complete control)
[21] = postemergence, 62 g ai/ha, scale 0 to 100, 0 no effect, 100 complete control
[22] = Postemergence, 31 g ai/ha, 0 to 100 scale (0 no effect, 100 complete control)

CCOC(=O)Oc1c(C)nn(C)c(=O)c1-c1c(C)sc2c(C)cc(C)cc12 [Compound 83]
Plant response rating, Waterhemp [1, 15]: 60 | Plant response rating, Waterhemp [1, 16]: 80 | Plant response rating, Waterhemp [1, 17]: 60 | Plant response rating, Waterhemp [1, 18]: 90 | Plant response rating, Waterhemp [1, 19]: 100 | Waterhemp plant response rating [1, 20]: 100 | Waterhemp plant response rating [1, 21]: 85 | Plant response rating, Foxtail, Giant [2, 15]: 85 | Plant response rating, Foxtail, Giant [2, 16]: 90 | Plant response rating, Foxtail, Giant [2, 17]: 85 | Plant response rating, Foxtail, Giant [2, 18]: 100 | Plant response rating, Foxtail, Giant [2, 19]: 100 | Foxtail, Giant plant response rating [2, 20]: 100 | Foxtail, Giant plant response rating [2, 21]: 85 | Barnyardgrass plant response rating [3, 22]: 25 | Plant response rating, Barnyardgrass [3, 15]: 30 | Plant response rating, Barnyardgrass [3, 16]: 45 | Plant response rating, Barnyardgrass [3, 17]: 50 | Plant response rating, Barnyardgrass [3, 18]: 70 | Plant response rating, Barnyardgrass [3, 19]: 85 | Barnyardgrass plant response rating [3, 20]: 90 | Barnyardgrass plant response rating [3, 21]: 25 | Plant response rating, Nutsedge, Yellow [4, 15]: 85 | Plant response rating, Nutsedge, Yellow [4, 16]: 90 | Plant response rating, Nutsedge, Yellow [4, 17]: 85 | Plant response rating, Nutsedge, Yellow [4, 18]: 90 | Plant response rating, Nutsedge, Yellow [4, 19]: 85 | Nutsedge, Yellow plant response rating [4, 20]: 95 | Nutsedge, Yellow plant response rating [4, 21]: 80 | Blackgrass plant response rating [5, 22]: 40 | Plant response rating, Blackgrass [5, 15]: 90 | Plant response rating, Blackgrass [5, 16]: 90 | Plant response rating, Blackgrass [5, 17]: 70 | Plant response rating, Blackgrass [5, 18]: 80 | Plant response rating, Blackgrass [5, 19]: 80 | Blackgrass plant response rating [5, 20]: 90 | Blackgrass plant response rating [5, 21]: 80 | Plant response rating, Soybean (soybean (Glycine max); [15]): 0 | Plant response rating, Soybean (soybean (Glycine max); [16]): 10 | Plant response rating, Soybean (soybean (Glycine max); [17]): 30 | Plant response rating, Soybean (soybean (Glycine max); [18]): 0 | Plant response rating, Soybean (soybean (Glycine max); [19]): 0 | Soybean plant response rating (soybean (Glycine max); [20]): 0 | Soybean plant response rating (soybean (Glycine max); [21]): 0 | Plant response rating, Morningglory [6, 15]: 100 | Plant response rating, Morningglory [6, 16]: 98 | Plant response rating, Morningglory [6, 17]: 85 | Plant response rating, Morningglory [6, 18]: 90 | Plant response rating, Morningglory [6, 19]: 95 | Morningglory plant response rating [6, 20]: 98 | Morningglory plant response rating [6, 21]: 90 | Plant response rating, Lambsquarters [7, 15]: 85 | Plant response rating, Lambsquarters [7, 16]: 98 | Plant response rating, Lambsquarters [7, 17]: 80 | Plant response rating, Lambsquarters [7, 18]: 85 | Plant response rating, Lambsquarters [7, 19]: 95 | Lambsquarters plant response rating [7, 20]: 100 | Lambsquarters plant response rating [7, 21]: 85 | Plant response rating, Galium [8, 15]: 100 | Plant response rating, Galium [8, 16]: 100 | Plant response rating, Galium [8, 17]: 90 | Plant response rating, Galium [8, 18]: 90 | Plant response rating, Galium [8, 19]: 95 | Galium plant response rating [8, 20]: 95 | Galium plant response rating [8, 21]: 90 | Plant response rating, Ragweed [9, 15]: 90 | Plant response rating, Ragweed [9, 16]: 85 | Plant response rating, Ragweed [9, 17]: 85 | Plant response rating, Ragweed [9, 18]: 100 | Plant response rating, Ragweed [9, 19]: 95 | Ragweed plant response rating [9, 20]: 95 | Ragweed plant response rating [9, 21]: 85 | Plant response rating, Pigweed [10, 15]: 90 | Plant response rating, Pigweed [10, 16]: 90 | Plant response rating, Pigweed [10, 17]: 100 | Plant response rating, Pigweed [10, 18]: 100 | Plant response rating, Pigweed [10, 19]: 100 | Pigweed plant response rating [10, 20]: 100 | Pigweed plant response rating [10, 21]: 85 | Plant response rating, Johnsongrass [11, 15]: 5 | Plant response rating, Johnsongrass [11, 16]: 10 | Plant response rating, Johnsongrass [11, 17]: 65 | Plant response rating, Johnsongrass [11, 18]: 75 | Plant response rating, Johnsongrass [11, 19]: 60 | Johnsongrass plant response rating [11, 20]: 70 | Johnsongrass plant response rating [11, 21]: 5 | Plant response rating, Velvetleaf [12, 15]: 90 | Plant response rating, Velvetleaf [12, 16]: 90 | Plant response rating, Velvetleaf [12, 17]: 35 | Plant response rating, Velvetleaf [12, 18]: 70 | Plant response rating, Velvetleaf [12, 19]: 85 | Velvetleaf plant response rating [12, 20]: 90 | Velvetleaf plant response rating [12, 21]: 90 | Plant response rating, Ryegrass, Italian [13, 15]: 90 | Plant response rating, Ryegrass, Italian [13, 16]: 95 | Plant response rating, Ryegrass, Italian [13, 17]: 90 | Plant response rating, Ryegrass, Italian [13, 18]: 90 | Plant response rating, Ryegrass, Italian [13, 19]: 90 | Ryegrass, Italian plant response rating [13, 20]: 90 | Ryegrass, Italian plant response rating [13, 21]: 90 | Corn plant response rating (corn (Zea mays); [22]): 5 | Plant response rating, Corn (corn (Zea mays); [15]): 10 | Plant response rating, Corn (corn (Zea mays); [16]): 10 | Plant response rating, Corn (corn (Zea mays); [17]): 0 | Plant response rating, Corn (corn (Zea mays); [18]): 0 | Plant response rating, Corn (corn (Zea mays); [19]): 0 | Corn plant response rating (corn (Zea mays); [20]): 10 | Corn plant response rating (corn (Zea mays); [21]): 5 | Plant response rating, Wheat [14, 15]: 0 | Plant response rating, Wheat [14, 16]: 0 | Plant response rating, Wheat [14, 17]: 0 | Plant response rating, Wheat [14, 18]: 0 | Plant response rating, Wheat [14, 19]: 0 | Wheat plant response rating [14, 20]: 0 | Wheat plant response rating [14, 21]: 0
